Measured values from patent US6737383B1, “Herbicidal oxadiazolidines” (priority 1999, dated 2004).

Columns and labels:
purple nutsedge = assay: Test B pre/postemergence purple nutsedge; format: in vivo, Cyperus rotundus
Summary of the method: (§1)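 Response is a visual 0-to-10 score relative to untreated plants, where 0 means no effect and 10 means complete control, taken twelve to sixteen days after application. Treatments went onto soil at planting and onto foliage of 1- to 4-leaf plants, using a surfactant-containing non-phytotoxic solvent.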

blackgrass = assay: Test B pre/postemergence blackgrass; format: in vivo, Alopecurus myosuroides
Summary of the method: as §1

soybean = assay: Test B pre/postemergence soybean; format: in vivo, Glycine max
Summary of the method: as §1

cocklebur = assay: Test B pre/postemergence cocklebur; format: in vivo, Xanthium strumarium
Summary of the method: as §1

smallflower flatsedge = assay: Test B flood test smallflower flatsedge; format: in vivo, Cyperus difformis; conditions: for S. Flatsedge plant response rating: scale of 0 to 10 where 0 is no effect and 10 is complete control
Summary of the method: (§2)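 Plants were grown to the 2-leaf stage before treatment with test chemical, then held in a greenhouse for twelve to sixteen days. Injury was visually rated against untreated controls on a 0–10 scale, where 0 is no effect and 10 is complete control.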

surinam grass = assay: Test B pre/postemergence surinam grass; format: in vivo, Brachiaria decumbens
Summary of the method: as §1

wild oat = assay: Test B pre/postemergence wild oat; format: in vivo, Avena fatua
Summary of the method: as §1

wheat = assay: Test B pre/postemergence wheat; format: in vivo, Triticum aestivum
Summary of the method: as §1

rape = assay: Test B pre/postemergence rape; format: in vivo, Brassica napus
Summary of the method: as §1

corn = assay: Test B pre/postemergence corn; format: in vivo, Zea mays
Summary of the method: as §1

velvetleaf = assay: Test B pre/postemergence velvetleaf; format: in vivo, Abutilon theophrasti
Summary of the method: as §1

pigweed = assay: Test B pre/postemergence pigweed; format: in vivo, Amaranthus retroflexus
Summary of the method: as §1

crabgrass = assay: Test B pre/postemergence crabgrass; format: in vivo, Digitaria sanguinalis
Summary of the method: as §1

bedstraw = assay: Test B pre/postemergence bedstraw; format: in vivo, Galium aparine; conditions: Postemergence, Rate 500 g/ha; scale of 0 to 10 where 0 is no effect and 10 is complete control
Summary of the method: as §1

sugar beet = assay: Test B pre/postemergence sugar beet; format: in vivo, Beta vulgaris
Summary of the method: as §1

bamyardgrass = assay: Test B flood test barnyardgrass; format: in vivo, Echinochloa crus-galli; conditions: for Plant response rating, Barnyardgrass: scale 0 to 10, 0 is no effect, 10 is complete control; for Barnyardgrass plant response rating: scale of 0 to 10 where 0 is no effect and 10 is complete control
Summary of the method: as §2

[1] = Postemergence, Rate 250 g/ha, scale 0 to 10, 0 is no effect, 10 is complete control
[2] = Postemergence, Rate 500 g/ha, scale of 0 to 10 where 0 is no effect and 10 is complete control
[3] = Preemergence, Rate 62 g/ha, scale 0 to 10 (0 no effect, 10 complete control)
[4] = Preemergence, Rate 125 g/ha, scale of 0 to 10 where 0 is no effect and 10 is complete control
[5] = Preemergence, Rate 250 g/ha, scale 0 to 10, 0 is no effect, 10 is complete control
[6] = Preemergence, Rate 500 g/ha, scale 0 to 10, 0 is no effect, 10 is complete control
[7] = Rate 62 g/ha, Postemergence, scale of 0 to 10 where 0 is no effect and 10 is complete control
[8] = Postemergence, Rate 125 g/ha, scale 0 to 10, 0 is no effect, 10 is complete control
[9] = Preemergence, Rate 250 g/ha, scale of 0 to 10 where 0 is no effect and 10 is complete control
[10] = Postemergence section (flood test species), Rate 500 g/ha
[11] = Rate 62 g/ha, Postemergence (flood test species)

`CC(C)N(C(=O)n1oc(=O)n(CCCC(F)(F)F)c1=O)c1ccc(F)cc1` [Compound 398] was tested, and the “Plant response rating, Nutsedge” value (purple nutsedge; [1]) was 0, the “Nutsedge plant response rating” value (purple nutsedge; [2]) was 0 and the “Plant response rating, Nutsedge” value (purple nutsedge; [3]) was 0. For the same compound, the “Plant response rating, Nutsedge” value (purple nutsedge; [4]) was 0, the “Nutsedge plant response rating” value (purple nutsedge; [5]) was 0 and the “Nutsedge plant response rating” value (purple nutsedge; [6]) was 0. The “Nutsedge plant response rating” value (purple nutsedge; [7]) was 0, the “Plant response rating, Blackgrass” value (blackgrass; [8]) was 6 and the “Plant response rating, Blackgrass” value (blackgrass; [1]) was 9. The “Blackgrass plant response rating” value (blackgrass; [2]) was 9, the “Plant response rating, Blackgrass” value (blackgrass; [3]) was 3 and the “Plant response rating, Blackgrass” value (blackgrass; [4]) was 8. The “Blackgrass plant response rating” value (blackgrass; [9]) was 8, the “Blackgrass plant response rating” value (blackgrass; [6]) was 10 and the “Blackgrass plant response rating” value (blackgrass; [7]) was 0. For the same compound, the “Plant response rating, Soybean” value (soybean; [1]) was 4, the “Soybean plant response rating” value (soybean; [2]) was 6 and the “Plant response rating, Soybean” value (soybean; [3]) was 0. For the same compound, the “Plant response rating, Soybean” value (soybean; [4]) was 0, the “Soybean plant response rating” value (soybean; [5]) was 0 and the “Soybean plant response rating” value (soybean; [6]) was 0. The “Soybean plant response rating” value (soybean; [7]) was 3, the “Plant response rating, Cocklebur” value (cocklebur; [8]) was 0 and the “Plant response rating, Cocklebur” value (cocklebur; [1]) was 0. For the same compound, the “Cocklebur plant response rating” value (cocklebur; [2]) was 0, the “Plant response rating, Cocklebur” value (cocklebur; [3]) was 0 and the “Plant response rating, Cocklebur” value (cocklebur; [4]) was 0. The “Cocklebur plant response rating” value (cocklebur; [5]) was 0, the “Cocklebur plant response rating” value (cocklebur; [6]) was 0 and the “Cocklebur plant response rating” value (cocklebur; [7]) was 0. The “S. Flatsedge plant response rating” value (smallflower flatsedge; [10]) was 0, the “S. Flatsedge plant response rating” value (smallflower flatsedge; [11]) was 0 and the “Plant response rating, S. Flatsedge” value (smallflower flatsedge; flood test species, listed under Postemergence, Rate 250 g/ha, scale 0 to 10, 0 is no effect, 10 is complete control) was 0. The “Plant response rating, B. signalgrass” value (surinam grass; [8]) was 0, the “Plant response rating, B. signalgrass” value (surinam grass; [1]) was 2 and the “B. signalgrass plant response rating” value (surinam grass; [2]) was 8. The “Plant response rating, B. signalgrass” value (surinam grass; [3]) was 0, the “Plant response rating, B. signalgrass” value (surinam grass; [4]) was 2 and the “B. signalgrass plant response rating” value (surinam grass; [9]) was 6. For the same compound, the “B. signalgrass plant response rating” value (surinam grass; Preemergence, Rate 500 g/ha, scale of 0 to 10 where 0 is no effect and 10 is complete control) was 10, the “B. signalgrass plant response rating” value (surinam grass; [7]) was 0 and the “Wild oats plant response rating” value (wild oat; [2]) was 0. For the same compound, the “Plant response rating, Wild oats” value (wild oat; [3]) was 0, the “Plant response rating, Wild oats” value (wild oat; [4]) was 3 and the “Wild oats plant response rating” value (wild oat; [5]) was 3. The “Wild oats plant response rating” value (wild oat; [6]) was 8, the “Wild oats plant response rating” value (wild oat; [7]) was 0 and the “Wheat plant response rating” value (wheat; [2]) was 3. The “Plant response rating, Wheat” value (wheat; [3]) was 0, the “Plant response rating, Wheat” value (wheat; [4]) was 0 and the “Wheat plant response rating” value (wheat; [5]) was 0. The “Wheat plant response rating” value (wheat; [6]) was 2, the “Wheat plant response rating” value (wheat; [7]) was 0 and the “Plant response rating, Rape” value (rape; [1]) was 2. The “Rape plant response rating” value (rape; [2]) was 2, the “Plant response rating, Rape” value (rape; [3]) was 0 and the “Plant response rating, Rape” value (rape; [4]) was 3. For the same compound, the “Rape plant response rating” value (rape; [5]) was 8, the “Rape plant response rating” value (rape; [6]) was 10 and the “Rape plant response rating” value (rape; [7]) was 0. For the same compound, the “Plant response rating, Corn” value (corn; [8]) was 0, the “Plant response rating, Corn” value (corn; [1]) was 0 and the “Corn plant response rating” value (corn; [2]) was 0. For the same compound, the “Plant response rating, Corn” value (corn; [3]) was 0, the “Plant response rating, Corn” value (corn; [4]) was 0 and the “Corn plant response rating” value (corn; [5]) was 0. For the same compound, the “Corn plant response rating” value (corn; [6]) was 8, the “Corn plant response rating” value (corn; [7]) was 0 and the “Plant response rating, Velvetleaf” value (velvetleaf; [1]) was 0. The “Velvetleaf plant response rating” value (velvetleaf; [2]) was 5, the “Plant response rating, Velvetleaf” value (velvetleaf; [3]) was 0 and the “Plant response rating, Velvetleaf” value (velvetleaf; [4]) was 2. For the same compound, the “Velvetleaf plant response rating” value (velvetleaf; [5]) was 6, the “Velvetleaf plant response rating” value (velvetleaf; [6]) was 7 and the “Velvetleaf plant response rating” value (velvetleaf; [7]) was 0. The “Plant response rating, Redroot pigweed” value (pigweed; [1]) was 3, the “Redroot pigweed plant response rating” value (pigweed; [2]) was 5 and the “Plant response rating, Redroot pigweed” value (pigweed; [3]) was 2. For the same compound, the “Plant response rating, Redroot pigweed” value (pigweed; [4]) was 5, the “Redroot pigweed plant response rating” value (pigweed; [5]) was 10 and the “Redroot pigweed plant response rating” value (pigweed; [6]) was 10. For the same compound, the “Redroot pigweed plant response rating” value (pigweed; [7]) was 0, the “Plant response rating, Crabgrass” value (crabgrass; [8]) was 3 and the “Plant response rating, Crabgrass” value (crabgrass; [1]) was 9. For the same compound, the “Crabgrass plant response rating” value (crabgrass; [2]) was 9, the “Plant response rating, Crabgrass” value (crabgrass; [3]) was 9 and the “Plant response rating, Crabgrass” value (crabgrass; [4]) was 10. For the same compound, the “Crabgrass plant response rating” value (crabgrass; [5]) was 10, the “Crabgrass plant response rating” value (crabgrass; [6]) was 10 and the “Crabgrass plant response rating” value (crabgrass; [7]) was 2. For the same compound, the “Bedstraw plant response rating” value (bedstraw) was 9, the “Plant response rating, Sugarbeets” value (sugar beet; [1]) was 0 and the “Sugarbeets plant response rating” value (sugar beet; [2]) was 0. The “Plant response rating, Sugarbeets” value (sugar beet; [3]) was 0, the “Plant response rating, Sugarbeets” value (sugar beet; [4]) was 4 and the “Sugarbeets plant response rating” value (sugar beet; [5]) was 4. The “Sugarbeets plant response rating” value (sugar beet; [6]) was 9, the “Sugarbeets plant response rating” value (sugar beet; [7]) was 0 and the “Plant response rating, Barnyardgrass” value (bamyardgrass; Postemergence (flood test), Rate 125 g/ha) was 0. For the same compound, the “Barnyardgrass plant response rating” value (bamyardgrass; [10]) was 0, the “Barnyardgrass plant response rating” value (bamyardgrass; [11]) was 0 and the “Plant response rating, Barnyardgrass” value (bamyardgrass; flood test species, listed under Postemergence, Rate 250 g/ha) was 0.
